Data taken from patent publication US20080267862A1, “METHOD OF TREATING CANCER” (priority 2007, published 2008).

Tests used:
[1] = system: squamous cell carcinomatous tumor; experiment: histopathology (HPE) of neo-angiogenesis 96 hrs after Injection LMH in a patient; format: in vivo, human; conditions: LMH 4 g/day I.V. for 4 days, HPE after 96 hrs
Text: (§1) Recurrences were confirmed with biopsy and HP examination. Subsequently, the patient was given 2 cycles of Palliative Chemotherapy, following Injection LMH (Lysine Monohydrochloride) for 4 days (4 g/day I.V. in divided doses), with Cisplatin and 5 FU.
HPE was done 96 hrs after Injection LMH to confirm the neo-angiogenesis (FIGS. 4 & FIGS. 5 & FIGS. 6-9)(Also compare FIGS. 4 to 9 with FIGS. 10-11 for quantitative comparison of angiogenic response in LMH treated squamous cell carcinomatous tumor vs. control tumours).

[2] = system: recurrence lymph node masses; experiment: clinical response of recurrent lymph node masses in a patient followed by palliative chemotherapy; format: in vivo, human; conditions: one patient; LMH 4 g/day I.V. for 4 days, then 2 cycles of palliative chemotherapy with Cisplatin and 5 FU
Text: […] They underwent Radical surgery in the form of total excision of primary tumors and bilateral Supra-omohyoid Neck dissection. Adjuvant External Beam Radiotherapy (EBRT) was then given 66 Gy/33 Fr 6½ weeks and the patient went into complete remission and was disease free for >9 months.
Subsequently, the patient had multiple nodal recurrences presenting with palpable masses.
as §1

cells in culture = experiment: cellular expansion / rapid cellular growth in culture in-vitro; format: cell-based; conditions: FIG. 3
Text: (§2) Lysine induced repair process depends on the ability of the amino acid/derivative(s) to induce rapid and controlled cellular expansion, both in-vitro and in-vivo. The phenomenon is probably based on the ability of the molecule(s) to act as the cell surface concentrator(s) of circulating growth factor(s). The rapid angiogenic property of the molecule(s) is also entirely dependent on the same phenomenon, where angiogenic factors are concentrated, locally, on the endothelial cell surface receptors, mediated by the molecule(s) working, possibly, as molecular bridges.

expanding cells in-vivo = experiment: expanding cells in-vivo
Text: The present invention is based on an improvement over the inventor's earlier discovery that lysine, without the presence of any other angiogenic factor(s)/angiogenic growth factor(s)/vasculogenic/granulation tissue inducing agent(s), is capable of inducing angiogenesis in ischaemic tissues. The inventor's initial inquiries were directed towards finding new chemical additives in a high-density-culture system, in-vitro, where the objective was to expand viable hybridoma cell mass to the maximum possible at the least possible time (lag phase minimization) and maintaining the viable cell mass in culture for the maximum possible time period, in both fed-batch as well as batch cultures. The final goal was to get highest possible yields of monoclonal antibody (Mab) in the said high-density culture. […] Because of its ability to expand cells in-vitro, the cationic amino acid was taken, along with its d-isomer and short oligomer (m.w. up to or around 500-2500) to in-vivo experimentation and clinical conditions, for controlled regeneration of cells (in clinical conditions), where in-situ regeneration of cells was centrally important along with angio-neogenesis/vasculogensis.

[3] = induction of angiogenesis in-vivo; conditions: for effectiveness, on their own, in inducing angiogenesis response: each on its own
Text: as §2

hybridoma cell mass = conditions: high-density hybridoma culture, fed-batch and batch; Datta, D et al. 1997; cited from earlier work

## Cl.NCCCC[C@H](N)C(=O)O [LMH, Lysine Monohydrochloride]
[1]; FIG. 4
  angiogenic response in glandular structure (histopathology): extensive angiogenic response
[1]; FIGS. 5-9, versus control FIGS. 10-11
  angiogenic response in tumor tissue (histopathology): huge angiogenic and massive blood channel formation
[2]
  outcome of recurrence lymph node masses: disappeared achieving a 2nd complete recovery

## NCCCC[C@@H](N)C(=O)O [d-lysine]
Cells in culture; about 10 mcg/ml of added load, in addition to the usual load of l-lysine in the media
  cellular expansion in culture: mediated cellular expansion in culture
Cells in culture; in-vitro
  effectiveness in expanding cells / inducing rapid cellular growth in-vitro, compared to l-lysine: equally effective
Expanding cells in-vivo
  effectiveness in expanding cells in-vivo, compared to the l-variety: equally effective
[3]
  effectiveness, on their own, in inducing angiogenesis response: equally effective
[3]; in-vivo
  effectiveness in inducing angiogenesis in-vivo, compared to l-lysine: equally effective

## NCCCC[C@H](N)C(=O)O [l-lysine]
[3]
  effectiveness, on their own, in inducing angiogenesis response: equally effective
Hybridoma cell mass
  expansion of biomass (cell population) compared to other physico-chemical means: expand the biomass (cell population) at the least possible time
